Holding throughout (assay): biochemical
What all share (assay type): biochemical

In experiment [1] the target is T1, 382 unique human kinases (Homo sapiens, UniProt P22612).
T1 construct: purchased Reaction Biology (HotSpot contract assay)
The following applies: kinase PKAcg, compound 10 uM; for remaining activity at 10 µM: read-out: % Enzyme Activity (relative to DMSO controls).

Experiment [2] addresses T2, 382 unique human kinases (Homo sapiens, UniProt Q96PF2).
T2 construct: purchased Reaction Biology (HotSpot contract assay)
T2 sequence (Q96PF2 1-358): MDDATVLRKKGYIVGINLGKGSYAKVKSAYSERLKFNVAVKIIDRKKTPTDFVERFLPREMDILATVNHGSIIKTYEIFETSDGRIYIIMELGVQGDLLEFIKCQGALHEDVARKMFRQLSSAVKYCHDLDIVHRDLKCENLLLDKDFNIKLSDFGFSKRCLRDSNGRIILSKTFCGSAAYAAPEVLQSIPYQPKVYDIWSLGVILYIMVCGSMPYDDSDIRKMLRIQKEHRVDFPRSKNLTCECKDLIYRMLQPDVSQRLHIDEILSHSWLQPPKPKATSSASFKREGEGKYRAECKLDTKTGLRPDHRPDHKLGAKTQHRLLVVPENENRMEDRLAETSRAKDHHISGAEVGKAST
Particulars: kinase TSSK2, compound 10 uM; for remaining activity at 10 µM: read-out: % Enzyme Activity (relative to DMSO controls).

Experiment [3] addresses T3, 382 unique human kinases (Homo sapiens, UniProt Q9P0L2).
T3 construct: purchased Reaction Biology (HotSpot contract assay)
Particulars: MARK1, compound at 10 uM, duplicate values; for remaining activity at 10 µM: read-out: % Enzyme Activity (relative to DMSO controls).

The target of experiment [4] is T4, 382 unique human kinases (Homo sapiens, UniProt P19525).
T4 construct: purchased Reaction Biology (HotSpot contract assay)
T4 sequence (P19525 whole entry): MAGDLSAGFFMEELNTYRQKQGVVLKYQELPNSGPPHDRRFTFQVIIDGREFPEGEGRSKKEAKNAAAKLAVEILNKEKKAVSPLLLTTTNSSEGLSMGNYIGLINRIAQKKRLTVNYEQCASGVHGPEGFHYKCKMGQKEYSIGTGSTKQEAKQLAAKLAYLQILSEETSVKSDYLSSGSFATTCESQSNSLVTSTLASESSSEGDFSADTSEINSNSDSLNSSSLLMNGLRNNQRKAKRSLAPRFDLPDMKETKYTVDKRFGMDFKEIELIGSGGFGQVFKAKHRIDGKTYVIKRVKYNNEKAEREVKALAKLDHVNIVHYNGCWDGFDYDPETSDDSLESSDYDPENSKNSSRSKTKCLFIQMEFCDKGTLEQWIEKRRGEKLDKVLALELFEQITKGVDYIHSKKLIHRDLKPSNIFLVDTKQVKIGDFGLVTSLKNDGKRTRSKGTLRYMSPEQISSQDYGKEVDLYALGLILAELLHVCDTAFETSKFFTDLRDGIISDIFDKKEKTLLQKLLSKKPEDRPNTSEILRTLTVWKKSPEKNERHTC
The following applies: kinase EIF2AK2, compound 10 uM; for remaining activity at 10 µM: read-out: % Enzyme Activity (relative to DMSO controls).

Experiment [5] has as its target T5, 382 unique human kinases (Homo sapiens, UniProt Q9UHD2).
T5 construct: purchased Reaction Biology (HotSpot contract assay)
T5 sequence (Q9UHD2 1-729): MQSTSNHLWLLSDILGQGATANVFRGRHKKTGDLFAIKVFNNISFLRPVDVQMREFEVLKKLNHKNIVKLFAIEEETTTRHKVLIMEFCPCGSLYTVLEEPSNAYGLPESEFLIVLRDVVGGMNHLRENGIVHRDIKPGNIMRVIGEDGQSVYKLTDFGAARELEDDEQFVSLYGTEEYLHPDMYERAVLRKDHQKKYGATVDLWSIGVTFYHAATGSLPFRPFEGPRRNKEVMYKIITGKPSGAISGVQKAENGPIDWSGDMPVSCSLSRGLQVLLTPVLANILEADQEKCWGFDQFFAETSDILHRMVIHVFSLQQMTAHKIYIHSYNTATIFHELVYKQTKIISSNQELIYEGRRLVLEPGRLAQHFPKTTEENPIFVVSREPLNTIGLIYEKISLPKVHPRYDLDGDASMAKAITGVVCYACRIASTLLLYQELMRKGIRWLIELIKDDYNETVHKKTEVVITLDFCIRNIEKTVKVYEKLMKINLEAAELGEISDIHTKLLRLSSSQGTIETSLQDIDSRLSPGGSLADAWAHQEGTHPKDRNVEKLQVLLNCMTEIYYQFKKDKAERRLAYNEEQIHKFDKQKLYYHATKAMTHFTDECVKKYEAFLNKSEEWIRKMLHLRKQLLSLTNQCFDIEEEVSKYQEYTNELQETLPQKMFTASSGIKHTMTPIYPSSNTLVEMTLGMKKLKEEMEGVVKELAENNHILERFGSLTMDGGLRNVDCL
The following applies: kinase TBK1, compound 10 uM; for remaining activity at 10 µM: read-out: % Enzyme Activity (relative to DMSO controls).

The target in experiment [6] is T6, 382 unique human kinases (Homo sapiens, UniProt P45984).
T6 construct: purchased Reaction Biology (HotSpot contract assay)
The following applies: kinase JNK2, compound 10 uM; for remaining activity at 10 µM: read-out: % Enzyme Activity (relative to DMSO controls).

Experiment [7] deals with T7, 382 unique human kinases (Homo sapiens, UniProt Q7L7X3).
T7 construct: purchased Reaction Biology (HotSpot contract assay)
T7 sequence (Q7L7X3 1-1001): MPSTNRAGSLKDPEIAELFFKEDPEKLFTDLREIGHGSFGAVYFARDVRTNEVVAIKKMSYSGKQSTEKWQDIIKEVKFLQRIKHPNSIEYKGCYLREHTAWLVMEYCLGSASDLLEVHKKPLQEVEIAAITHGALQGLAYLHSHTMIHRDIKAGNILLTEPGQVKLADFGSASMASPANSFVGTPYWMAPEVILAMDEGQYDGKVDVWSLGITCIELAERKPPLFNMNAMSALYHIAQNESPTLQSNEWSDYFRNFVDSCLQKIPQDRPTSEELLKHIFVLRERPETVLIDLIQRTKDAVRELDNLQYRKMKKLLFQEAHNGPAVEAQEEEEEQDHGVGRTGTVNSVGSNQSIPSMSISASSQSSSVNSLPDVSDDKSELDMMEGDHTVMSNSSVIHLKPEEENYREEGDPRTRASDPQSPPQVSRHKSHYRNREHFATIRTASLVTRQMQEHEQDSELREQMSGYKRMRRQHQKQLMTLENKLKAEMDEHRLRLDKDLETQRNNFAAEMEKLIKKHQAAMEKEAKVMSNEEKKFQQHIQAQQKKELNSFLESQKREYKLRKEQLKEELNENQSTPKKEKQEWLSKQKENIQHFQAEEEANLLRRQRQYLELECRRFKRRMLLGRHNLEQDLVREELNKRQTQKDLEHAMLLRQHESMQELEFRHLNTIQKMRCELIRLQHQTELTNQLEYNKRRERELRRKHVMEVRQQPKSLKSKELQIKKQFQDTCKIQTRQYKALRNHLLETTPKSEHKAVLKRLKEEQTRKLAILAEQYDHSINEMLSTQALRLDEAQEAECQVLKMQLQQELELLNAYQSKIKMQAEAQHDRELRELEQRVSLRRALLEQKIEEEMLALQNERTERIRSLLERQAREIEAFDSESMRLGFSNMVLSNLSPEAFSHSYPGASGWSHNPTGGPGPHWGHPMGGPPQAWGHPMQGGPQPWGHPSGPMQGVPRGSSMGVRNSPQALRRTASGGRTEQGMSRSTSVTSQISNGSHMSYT
Particulars: kinase TAOK1, compound 10 uM; for remaining activity at 10 µM: read-out: % Enzyme Activity (relative to DMSO controls).

Experiment [8] has as its target T8, 382 unique human kinases (Homo sapiens, UniProt P11309).
T8 construct: purchased Reaction Biology (HotSpot contract assay)
The following applies: PIM1, [ATP] 100 µM, compound 10 uM; for remaining activity at 10 µM: read-out: % Enzyme Activity (relative to DMSO controls).

For experiment [9], the target named is T9, 382 unique human kinases (Homo sapiens, UniProt Q9UM73, F1174S).
T9 construct: purchased Reaction Biology (HotSpot contract assay)
T9 sequence (Q9UM73 19-1620 F1174S): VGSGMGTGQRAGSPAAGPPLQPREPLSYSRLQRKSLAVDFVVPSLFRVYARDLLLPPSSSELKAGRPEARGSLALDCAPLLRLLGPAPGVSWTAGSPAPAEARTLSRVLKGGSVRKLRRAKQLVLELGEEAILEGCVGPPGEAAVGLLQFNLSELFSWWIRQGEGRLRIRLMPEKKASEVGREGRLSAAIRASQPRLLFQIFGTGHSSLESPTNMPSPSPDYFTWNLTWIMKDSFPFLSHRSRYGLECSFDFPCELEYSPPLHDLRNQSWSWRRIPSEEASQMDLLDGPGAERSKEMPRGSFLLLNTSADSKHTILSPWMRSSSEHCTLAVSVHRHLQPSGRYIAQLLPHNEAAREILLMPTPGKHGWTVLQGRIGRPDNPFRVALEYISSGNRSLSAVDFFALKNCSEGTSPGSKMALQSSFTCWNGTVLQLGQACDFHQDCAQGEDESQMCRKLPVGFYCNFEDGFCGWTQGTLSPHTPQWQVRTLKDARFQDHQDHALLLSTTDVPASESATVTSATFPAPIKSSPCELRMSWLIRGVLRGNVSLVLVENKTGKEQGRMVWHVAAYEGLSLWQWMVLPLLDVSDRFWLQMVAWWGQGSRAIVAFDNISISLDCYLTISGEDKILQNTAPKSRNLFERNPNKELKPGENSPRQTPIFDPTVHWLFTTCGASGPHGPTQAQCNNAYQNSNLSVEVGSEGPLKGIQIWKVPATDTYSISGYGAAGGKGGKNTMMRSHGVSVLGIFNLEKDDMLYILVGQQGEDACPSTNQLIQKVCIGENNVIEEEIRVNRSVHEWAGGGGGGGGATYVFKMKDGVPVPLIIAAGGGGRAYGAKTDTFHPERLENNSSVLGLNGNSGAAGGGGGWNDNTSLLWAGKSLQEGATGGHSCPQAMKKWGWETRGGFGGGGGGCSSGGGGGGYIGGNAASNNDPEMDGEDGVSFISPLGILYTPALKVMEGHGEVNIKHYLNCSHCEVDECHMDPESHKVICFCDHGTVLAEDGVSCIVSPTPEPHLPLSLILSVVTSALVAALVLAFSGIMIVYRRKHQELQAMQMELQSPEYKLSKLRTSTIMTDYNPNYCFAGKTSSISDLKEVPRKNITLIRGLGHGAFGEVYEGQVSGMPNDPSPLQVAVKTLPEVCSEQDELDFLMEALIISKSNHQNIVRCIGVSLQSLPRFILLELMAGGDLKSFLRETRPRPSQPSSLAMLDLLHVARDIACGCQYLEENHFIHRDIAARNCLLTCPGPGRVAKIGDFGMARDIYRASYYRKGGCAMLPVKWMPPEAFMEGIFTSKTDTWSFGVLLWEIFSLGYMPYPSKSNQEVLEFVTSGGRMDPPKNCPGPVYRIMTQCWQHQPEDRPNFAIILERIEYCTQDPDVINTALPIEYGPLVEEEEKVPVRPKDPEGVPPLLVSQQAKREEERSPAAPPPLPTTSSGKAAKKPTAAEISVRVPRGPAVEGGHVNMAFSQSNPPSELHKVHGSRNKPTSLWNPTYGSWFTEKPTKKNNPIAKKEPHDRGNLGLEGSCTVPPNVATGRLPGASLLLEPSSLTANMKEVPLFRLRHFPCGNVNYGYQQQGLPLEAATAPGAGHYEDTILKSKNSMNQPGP
Particulars: ALK (F1174S), [ATP] 20 µM, compound 10 uM; for remaining activity at 10 µM: read-out: % Enzyme Activity (relative to DMSO controls).

Experiment [10] has as its target T10, 382 unique human kinases (Homo sapiens, UniProt P07949, V804E).
T10 construct: purchased Reaction Biology (HotSpot contract assay)
Particulars: RET (V804E), 10 uM; for remaining activity at 10 µM: read-out: % Enzyme Activity (relative to DMSO controls).

The target in experiment [11] is T11, 382 unique human kinases (Homo sapiens, UniProt P07949, R749T).
T11 construct: purchased Reaction Biology (HotSpot contract assay)
T11 sequence (P07949 29-1114 R749T): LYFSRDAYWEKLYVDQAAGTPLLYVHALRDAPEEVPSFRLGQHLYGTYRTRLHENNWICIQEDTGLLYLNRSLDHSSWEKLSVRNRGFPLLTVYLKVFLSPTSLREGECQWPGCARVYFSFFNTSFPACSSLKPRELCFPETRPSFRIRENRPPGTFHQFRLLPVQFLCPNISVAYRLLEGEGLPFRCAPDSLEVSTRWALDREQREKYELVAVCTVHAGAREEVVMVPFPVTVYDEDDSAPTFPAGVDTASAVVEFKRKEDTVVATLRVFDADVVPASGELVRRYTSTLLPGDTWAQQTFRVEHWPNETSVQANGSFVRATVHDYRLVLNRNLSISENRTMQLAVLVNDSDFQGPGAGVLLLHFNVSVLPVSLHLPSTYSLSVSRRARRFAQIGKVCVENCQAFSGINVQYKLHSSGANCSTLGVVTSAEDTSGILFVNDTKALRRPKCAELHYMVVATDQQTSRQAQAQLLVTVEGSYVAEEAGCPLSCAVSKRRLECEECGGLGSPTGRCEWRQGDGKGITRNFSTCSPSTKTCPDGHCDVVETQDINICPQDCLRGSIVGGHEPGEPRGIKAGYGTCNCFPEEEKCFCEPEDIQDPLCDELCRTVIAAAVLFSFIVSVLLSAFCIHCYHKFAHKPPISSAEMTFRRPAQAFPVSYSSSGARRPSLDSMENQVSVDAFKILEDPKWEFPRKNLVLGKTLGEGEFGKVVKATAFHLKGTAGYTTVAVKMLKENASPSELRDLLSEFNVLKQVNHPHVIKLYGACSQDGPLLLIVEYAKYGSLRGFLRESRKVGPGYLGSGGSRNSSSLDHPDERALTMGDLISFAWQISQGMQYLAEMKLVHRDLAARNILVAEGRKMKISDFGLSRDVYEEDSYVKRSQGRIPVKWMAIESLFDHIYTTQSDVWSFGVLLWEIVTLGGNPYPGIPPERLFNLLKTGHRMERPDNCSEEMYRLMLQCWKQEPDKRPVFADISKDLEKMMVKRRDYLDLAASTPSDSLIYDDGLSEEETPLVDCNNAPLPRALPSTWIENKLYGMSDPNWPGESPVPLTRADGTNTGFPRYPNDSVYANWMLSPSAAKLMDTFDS
Particulars: RET (R749T), 10 uM; for remaining activity at 10 µM: read-out: % Enzyme Activity (relative to DMSO controls).

T1 sequence (P22612 whole entry): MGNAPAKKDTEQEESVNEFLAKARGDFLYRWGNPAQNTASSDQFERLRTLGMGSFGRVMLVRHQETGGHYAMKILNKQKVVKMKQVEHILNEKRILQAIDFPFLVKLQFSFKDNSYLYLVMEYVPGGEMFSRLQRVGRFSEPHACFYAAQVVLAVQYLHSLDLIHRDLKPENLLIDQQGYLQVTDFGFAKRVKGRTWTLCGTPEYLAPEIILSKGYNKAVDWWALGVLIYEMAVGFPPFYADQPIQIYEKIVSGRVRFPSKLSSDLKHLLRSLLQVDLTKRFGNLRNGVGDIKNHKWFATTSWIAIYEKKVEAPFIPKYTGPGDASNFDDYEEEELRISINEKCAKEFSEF
T8 sequence (P11309 whole entry): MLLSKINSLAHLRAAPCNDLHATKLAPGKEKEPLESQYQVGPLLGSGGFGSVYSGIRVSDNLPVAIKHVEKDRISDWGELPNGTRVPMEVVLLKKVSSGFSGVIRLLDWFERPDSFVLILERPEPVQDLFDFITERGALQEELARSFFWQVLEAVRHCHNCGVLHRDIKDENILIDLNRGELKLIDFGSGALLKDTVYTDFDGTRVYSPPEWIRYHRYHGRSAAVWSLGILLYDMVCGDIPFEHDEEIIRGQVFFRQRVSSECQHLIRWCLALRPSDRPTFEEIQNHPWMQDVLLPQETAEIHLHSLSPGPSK
T3 sequence (Q9P0L2 whole entry): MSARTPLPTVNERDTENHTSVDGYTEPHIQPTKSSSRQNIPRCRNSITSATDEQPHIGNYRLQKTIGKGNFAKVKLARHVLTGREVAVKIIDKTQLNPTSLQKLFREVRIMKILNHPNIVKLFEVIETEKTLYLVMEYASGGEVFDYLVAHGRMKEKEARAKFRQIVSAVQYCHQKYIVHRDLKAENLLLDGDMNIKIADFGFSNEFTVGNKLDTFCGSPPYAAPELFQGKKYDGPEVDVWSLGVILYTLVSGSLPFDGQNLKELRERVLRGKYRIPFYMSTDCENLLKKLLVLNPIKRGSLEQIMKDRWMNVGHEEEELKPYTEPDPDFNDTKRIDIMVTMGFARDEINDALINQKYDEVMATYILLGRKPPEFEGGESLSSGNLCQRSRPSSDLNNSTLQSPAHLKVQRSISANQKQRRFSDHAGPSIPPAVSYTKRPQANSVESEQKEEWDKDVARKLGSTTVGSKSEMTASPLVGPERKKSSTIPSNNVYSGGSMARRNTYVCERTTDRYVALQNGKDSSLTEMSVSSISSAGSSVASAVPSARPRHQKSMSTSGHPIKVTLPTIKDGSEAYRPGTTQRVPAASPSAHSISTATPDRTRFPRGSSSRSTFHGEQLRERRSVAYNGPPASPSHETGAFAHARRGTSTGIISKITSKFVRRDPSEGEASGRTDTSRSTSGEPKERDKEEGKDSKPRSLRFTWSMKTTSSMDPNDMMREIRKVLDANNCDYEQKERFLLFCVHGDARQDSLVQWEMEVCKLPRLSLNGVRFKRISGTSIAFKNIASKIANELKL
T10 sequence (P07949 29-1114 V804E): as the sequence (P07949 29-1114 R749T) above, with T721R, V776E counted along it

For `CC(C)c1cc(-c2n[nH]c(=O)n2-c2ccc3c(ccn3C)c2)c(O)cc1O` [Ganetespib (STA9090)], the remaining activity at 10 µM was 101% at 382 unique human kinases [1]; 90.3% on 382 unique human kinases [2]; 112% at 382 unique human kinases [3]; 90.5% on 382 unique human kinases [4]; 89.4% at 382 unique human kinases [5]; 90% on 382 unique human kinases [6]. Also, the remaining activity at 10 µM at 382 unique human kinases [7] amounted to 88.8%.
Consider `CC(C)c1cc(-c2n[nH]c(=O)n2-c2ccc3c(ccn3C)c2)c(O)cc1O` [Ganetespib], for which the remaining activity at 10 µM on 382 unique human kinases [8] was 15.9%; on 382 unique human kinases [9] it was 50.7%; on 382 unique human kinases [10] it was 92.2%; at 382 unique human kinases [11], 106%.
As for `CCNC(=O)c1noc(-c2cc(C(C)C)c(O)cc2O)c1-c1ccc(CN2CCOCC2)cc1` [Luminespib (AUY-922)], the “% Enzyme Activity (relative to DMSO controls)” value on 382 unique human kinases [1] turned out to be 102.38%; on 382 unique human kinases [2], 101.80%; on 382 unique human kinases [3], 104.63%; on 382 unique human kinases [4], 107.07%; on 382 unique human kinases [5] it was 105.06%; at 382 unique human kinases [6] it was 99.14%. The “% Enzyme Activity (relative to DMSO controls)” value at 382 unique human kinases [7] was found to be 92.28%. In addition, the remaining activity at 10 µM at 382 unique human kinases [1] stood at 104%; on 382 unique human kinases [2] it was 102%; at 382 unique human kinases [3], 110%; at 382 unique human kinases [4], 108%; at 382 unique human kinases [5], 107%; on 382 unique human kinases [6], 99.7%. Further, the remaining activity at 10 µM at 382 unique human kinases [7] turned out to be 95%.
Regarding `CCNC(=O)c1noc(-c2cc(C(C)C)c(O)cc2O)c1-c1ccc(CN2CCOCC2)cc1` [Luminespib], the “% Enzyme Activity (relative to DMSO controls)” value on 382 unique human kinases [8] amounted to 94.76%; at 382 unique human kinases [9], 97.77%; on 382 unique human kinases [10], 91.98%; at 382 unique human kinases [11], 97.79%. Besides, the remaining activity at 10 µM was determined as 97.2% at 382 unique human kinases [8], 98.7% at 382 unique human kinases [9], 93.3% at 382 unique human kinases [10] and 98.4% at 382 unique human kinases [11].
